Holding throughout (format): biochemical
One assay deals with T1, trypsin (Bos taurus, UniProt P00760).
T1 construct: b360 concerns trypsin in duodenal juice
T1 sequence (P00760 24-246): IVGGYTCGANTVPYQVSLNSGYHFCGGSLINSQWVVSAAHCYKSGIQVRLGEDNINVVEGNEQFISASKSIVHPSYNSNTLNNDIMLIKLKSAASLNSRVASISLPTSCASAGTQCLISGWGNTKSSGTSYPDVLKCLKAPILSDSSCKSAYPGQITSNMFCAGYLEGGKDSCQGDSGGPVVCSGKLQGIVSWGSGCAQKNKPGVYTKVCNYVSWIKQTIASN
Description: Determination of trypsin in duodenal juice with substrate. As to conditions: per ml of test sample; pH 8.4, ionic strength 0.30, 37° C., 405 nm. Here is the method:
The determination of trypsin in duodenal juice can be carried out for instance as follows: 1.79 ml of tris-imidazole buffer having a pH of 8.4 and an ionic strength of 0.30 are mixed with 0.01 ml of duodenal juice at 37° C. in a measuring vessel. Thereafter, the mixture is rapidly mixed with 0.2 ml of a 2×10^-3 molar solution of a substrate of this invention. The quantity of p-nitroaniline released from the substrate by the action of trypsin is determined by measuring the change in the optical density Δ OD per minute at a wave length of 405 nm. The quantity of p-nitroaniline released per minute or the corresponding change in the optical density is proportional to the trypsin activity. When using the substrate prepared according to Example 10, i.e. N^α -Cbo-C.cyclohexylglycyl-Gly-Arg-pNA.HCl, trypsin can be determined for instance at concentrations as low as 0.01 NF unit per ml of test sample.

The target in assay [1] is T2, urokinase (Homo sapiens, UniProt P00749).
T2 construct: also urine of healthy test persons
In words: Enzyme quantity splitting substrate I at 1 μmole pNA per minute (Table II), urokinase. As to conditions: 37° C., pH 8.4, ionic strength 0.3, substrate concentration 10^-4 mole. Here is the method: (§1) In the first column of Table II are listed the quantities of the various enzymes which split substrate I at a temperature of 37° C., a pH of 8.4, an ionic strength of 0.3 and a substrate concentration of 10^-4 mole with a velocity of 1 μmole per minute. In the second column the corresponding enzyme quantity, expressed in other enzyme units, is indicated.

The target in assay [2] is T2, urokinase. In words: Determination of urokinase concentration with substrate I (ΔOD versus urokinase quantity). Particulars: ΔOD within 10 minutes. Here is the method: In the appended drawing the sole figure represents a graph in which the change in the optical density Δ OD caused by the hydrolytic action of various quantities of urokinase on substrate I within 10 minutes is plotted as a function of the urokinase quantity in a co-ordinate system. From this graph it can be seen that urokinase concentrations can be determined accurately in the range of 1 to 10 CTA/ml. In the determination of the urokinase content in the urine of 14 healthy test persons values of about 8 CTA units per ml of urine were found.

Another assay has as its system urine kallikrein. Description: Enzyme quantity splitting substrate I at 1 μmole pNA per minute (Table II), urine kallikrein. The protocol: BAEE (Benzoyl-L-arginine ethyl ester)--1 BAEE unit of urine kallikrein is that quantity of enzyme which hydrolyzes 1 μmole of benzoyl-L-arginine ethyl ester per minute under standard conditions.
as §1

The subject of another assay is human plasmin. In words: Enzyme quantity splitting substrate I at 1 μmole pNA per minute (Table II), plasmin. As to conditions: 37° C., pH 8.4, ionic strength 0.3, substrate concentration 10^-4 mole. Here is the method:
CU is the casein unit which is measured on casein under standard conditions.
as §1

In assay [3] the target is T3, bovine trypsin (Bos taurus, UniProt P00760).
T3 sequence (P00760 24-246): T1 sequence (P00760 24-246)
In words: Activity of bovine trypsin at constant substrate and enzyme concentrations (Table IV). As to conditions: substrate concentration 2 × 10^-4 M; pH 8.4, ionic strength 0.30, 37° C., 405 nm. The protocol:
The results listed in Table IV were obtained under the following experimental conditions: In a measuring vessel 1.7 ml of tris-imidazole buffer having a pH of 8.4 and an ionic strength of 0.30 were mixed at 37° C. with 0.1 ml of an aqueous trypsin solution having a concentration of 2 NF units of trypsin per ml. To the mixture 0.2 ml of a 2×10^-3 molar solution of the substrate to be tested was added. Thereafter, the quantity of p-nitroaniline released from the substrate by the action of the trypsin was determined by measuring the change in the optical density Δ OD per minute at a wave length of 405 nm.

Another assay concerns human thrombin. Description: Enzyme quantity splitting substrate I at 1 μmole pNA per minute (Table II), thrombin. Here is the method: NIH is a unit which was standardized by the "US National Institute of Health".
as §1

Assay [4] concerns the target T3, bovine trypsin. Description: Enzyme quantity splitting substrate I at 1 μmole pNA per minute (Table II), trypsin. Particulars: 37° C., pH 8.4, ionic strength 0.3, substrate concentration 10^-4 mole. Here is the method:
NF is the trypsin unit, i.e. that quantity of enzyme which causes a change in the absorption Δ OD of 0.003 per minute, measured on benzoyl-L-arginine ethyl ester under standard conditions (cf. "The National Formulary XII", edited by "The American Pharmaceutical Association", Washington, D.C., 1965, pages 417-418).
as §1

Assay [5] deals with T2, urokinase. In words: Kinetic constants Km and vmax of substrate hydrolysis by urokinase (Lineweaver-Burk). As to conditions: per CTA unit, pH 8.4, ionic strength 0.30, 37° C. Here is the method:
The enzyme and the substrate are mixed in a buffer solution, and the hydrolysis reaction is followed for 2 to 30 minutes. The concentration of substate [S] is varied, whereas the enzyme concentration is kept constant. If the extinction (OD=optical density) is plotted in a co-ordinate system as a function of time, a curve is obtained the tangent of which at time zero corresponds to the ideal course of the hydrolysis. By means of this tangent the initial rate of the hydrolysis can be determined.
If 1/v is plotted against (1/[S]), a Lineweaver-Burk diagram (cf. "Kurzes Lehrbuch der Biochemie" by P. KARLSON, Georg Thieme-Verlag, Stuttgart, 1967, p. 70) is obtained from which vmax and Km can be determined graphically.
For the determination of the kinetic constants Km and vmax listed in Table I aqueous dilution series of the substrates with concentrations from 0.1 to 2 μmoles/ml were used. […] The value of the quantity of p-nitroaniline formed per minute is a measure for the rate of hydrolysis at a given substrate concentration. […] The kinetic constants Km and vmax were determined from the points of intersection of the curves with the abscissa and the ordinate.

The mark [6] stands for this setting: 37° C., pH 8.4, ionic strength 0.3, substrate concentration 10^-4 mole.

Counter-ions that a name gives are not always drawn. Non-standard residues stand in square brackets, D forms with d. Residues, ends and D or L forms follow the SMILES beside them. *: point of attachment. pNA = O=[N+]([O-])c1ccc(N*)cc1; Chg = N[C@H](C(=O)O)C1CCCCC1; Cbz = O=C(OCc1ccccc1)*; Bz = O=C(c1ccccc1)* A value given as a limit tells only on which side of the number the result lay.

As for `N=C(N)NCCC[C@H](NC(=O)CNC(=O)[C@@H](NC(=O)OCc1ccccc1)C1CCCCC1)C(=O)Nc1ccc([N+](=O)[O-])cc1` [Substrate X, N^α -Cbo-C.Cyclohexylglycyl-Gly-Arg-pNA.HCl] (Cbz-[Chg]-Gly-Arg-pNA), the “lowest trypsin concentration that can be determined” value at trypsin is on record as not below 0.01 NF unit per ml.

For the molecule `CC(C)[C@H](NC(=O)c1ccccc1)C(=O)NCC(=O)N[C@@H](CCCNC(=N)N)C(=O)Nc1ccc([N+](=O)[O-])cc1` [Substrate I, N^α -Bz-Val-Gly-Arg-pNA.HCl] (Bz-Val-Gly-Arg-pNA), the “enzyme quantity releasing 1 μmole of pNA per minute from substrate I, in corresponding other units” value at urokinase [1] was determined as 20250 CTA; in the assay with urine kallikrein (setting [6]) it was 1688 BAEE; in the assay on human plasmin it was 6850 CU; in the assay on human thrombin (setting [6]), 2174 NIH; at bovine trypsin [4], 36.6 NF. Moreover, the “range of urokinase concentrations that can be determined accurately” value on urokinase [2] is 1 to 10 CTA/ml. Further, the “splitting by kallikrein present in urine (in words)” value in the assay on urine kallikrein (conclusion from Table II) is on record as “split but little”. Also, at bovine trypsin [3], the “Quantity in nanomoles of p-nitroaniline enzymatically released from the substrate by 1 NF unit of trypsin in 1 minute” value is 20,9 nanomoles. Moreover, the “splitting by thrombin (in words)” value in the assay with human thrombin (conclusion from Table II) is “split very little and unspecifically”. In addition, the Vmax at urokinase [5] was 7.27 × 10^-5 μmole/min. CTA.
